Test results taken from patent US20220323437A1, “METHODS FOR TREATING PULMONARY ARTERIAL HYPERTENSION” (ACTELION PHARMACEUTICALS LTD, priority 2019, published 2022).
Values joined by “and” are separate entries in the source; they are usually repeats but may differ in a detail not shown here. Equal values may be shown once.

Assay: Adverse events during switch from oral to i.v. selexipag and back in subjects with stable PAH (Phase 3 study)
Type: in vivo, human
Experimental: This was a prospective, multicenter, open-label, single-sequence, cross-over, Phase 3 study. Based on the dose of selexipag received at study entry, subjects were allocated to one of the following groups, selexipag 200-1000 μg b.i.d. or selexipag 1200-1600 μg b.i.d. See, FIG. 1. The study comprised the following periods:
(ii) Treatment and observation period: The treatment and observation period included the following consecutive periods: • Period 1 included oral selexipag pre-treatment period for 1 day, in-hospital. This period started with intake of the morning dose of oral selexipag on Day 1 at Visit 2 and ended the following day, before initiation of the first infusion of i.v. selexipag. • Period 2 included i.v. selexipag treatment period for 36 hours [3 infusions], in-hospital. This period started in the morning of Day 2 at Visit 2 with the start of the first infusion of i.v. selexipag and ended in the evening of Day 3 at Visit 2 before the evening administration of oral selexipag. Administration of oral selexipag was interrupted during the i.v. selexipag treatment period. • Period 3 included oral selexipag post-treatment period for 7 to 11 day. This period started in the evening of Day 3 at Visit 2 with the administration of oral selexipag and ended 7-11 days later, at Visit 3.
The endpoints analyzed for Period 1, Period 2, and Period 3 and follow-up period combined included discontinuations due to prostacyclin-associated AEs, adverse events (AEs) and serious adverse events (SAEs), prostacyclin-associated AEs, AEs related to injection site reactions, and PAH-related AEs.
The endpoints analyzed for (i) Period 1, Period 2, and Period 3 and follow-up period combined (ii) Period 1 and Period 2 combined, and (iii) Period 2 and Period 3 combined included discontinuations due to prostacyclin-associated AEs, discontinuations due to any AEs, AEs and SAEs, prostacyclin-associated AEs, PAH-related AEs, change from baseline in vital signs (systolic blood pressure [SBP], diastolic blood pressure [DBP], and pulse rate) and body weight, ECG abnormalities, marked laboratory abnormalities, and change from baseline in WHO FC.
The statistical analysis was mainly descriptive, without formal hypothesis testing. Exact Pearson-Clopper CIs for the incidence of AEs were computed.

[1] = Overall (Periods 1, 2, and 3, and safety-follow-up combined), 20 subjects
[2] = Overall (Periods 1, 2, and 3 with safety-follow-up combined)
[3] = Period 1 (oral selexipag), total, N = 20
[4] = Period 1 (oral selexipag, 24 h), high dose cohort (1200-1600 μg), N = 12
[5] = Period 1 (oral selexipag, 24 h), high dose cohort (1200-1600 μg), N = 12, listed as Uptravi
[6] = Period 1 (oral selexipag, 24 h), low dose cohort (200-1000 μg), N = 8
[7] = Period 1 (oral selexipag, 24 h), total, N = 20
[8] = Period 2 (i.v. selexipag, 36 h), high dose cohort (1200-1600 μg), N = 12
[9] = Period 2 (i.v. selexipag, 36 h), low dose cohort (200-1000 μg), N = 8
[10] = Period 2 (i.v. selexipag, 36 h), total, N = 20
[11] = Period 2 (intravenous selexipag treatment), high dose cohort (1200-1600 μg), N = 12

CC(C)N(CCCCOCC(=O)NS(C)(=O)=O)c1cnc(-c2ccccc2)c(-c2ccccc2)n1 [selexipag, 2-{4-[(5,6-diphenylpyrazin-2-yl)(propan-2-yl)amino]butoxy}-N-(methanesulfonyl)acetamide]
2 n (%): Subjects with at least one AE (Period 1 (oral selexipag, 24 h), total, N = 20, listed as Uptravi) | AE incidence: Infusion site erythema [8] | AE incidence: Infusion site erythema [10]
1 (12.5) n (%): AE incidence: Swelling face [6] | Subjects with at least one AE [6] | AE incidence: Dysgeusia [9] | AE incidence: Epistaxis [9] | AE incidence: Headache [9] | AE incidence: Incorrect drug administration rate [9] | AE incidence: Lymphadenopathy [9] | AE incidence: Tachycardia [9]
3 n (%): AE incidence: Headache [8] | Prostacyclin-associated AE incidence: Headache [11]
5 subjects: subjects with moderate intensity AEs [2]
10 n (%): Subjects with at least one AE [10]
15 subjects: subjects with at least 1 AE during the study [1]
0 n (%): Subjects with at least one prostacyclin-associated AE (Period 1 (oral selexipag), high dose cohort (1200-1600 μg), N = 12) | Subjects with at least one prostacyclin-associated AE (Period 1 (oral selexipag), low dose cohort (200-1000 μg), N = 8) | Deaths [3] | Discontinuations due to prostacyclin-associated AEs [3] | Number of subjects with at least one Prostacyclin-associated AEs [3] | Number of subjects with at least one Serious adverse events (SAEs) [3] | SAE incidence: Blindness unilateral [3] | SAE incidence: Rhegmatogenous retinal detachment [3] | SAE incidence: Right ventricular failure [3] | AE incidence: Swelling face [4] | AE incidence: Sleep disorder [6] | AE incidence: Dysgeusia [8] | AE incidence: Epistaxis [8] | AE incidence: Incorrect drug administration rate [8] | AE incidence: Lymphadenopathy [8] | AE incidence: Tachycardia [8] | AE incidence: Diarrhoea [9] | AE incidence: Flatulence [9] | AE incidence: Flushing [9] | AE incidence: Infusion site erythema [9] | AE incidence: Infusion site swelling [9] | AE incidence: Myalgia [9] | AE incidence: Nasal congestion [9] | AE incidence: Nausea [9] | AE incidence: Pain in jaw [9] | AE incidence: Tension headache [9] | AE incidence: Vascular access complication [9] | AE incidence: Vomiting [9]
2 n (%) and 2 (10.0) n (%): Subjects with at least one AE [7]
6 n (%): Subjects with at least one AE [8]
No subject: prematurely discontinued study treatment (Period 2 (3 i.v. infusions of selexipag))
4 (50.0) n (%): Subjects with at least one AE [9]
4 n (%): AE incidence: Headache [10]
4 subjects: most frequently reported AE preferred term: headache [1]
two: subjects with clinically significant injection site reactions as determined by the investigator (Period 2 (i.v. selexipag))
1 n (%): AE incidence: Sleep disorder [4] | Subjects with at least one AE [4] | AE incidence: Sleep disorder [7] | AE incidence: Swelling face [7] | AE incidence: Diarrhoea [8] | AE incidence: Flatulence [8] | AE incidence: Flushing [8] | AE incidence: Infusion site swelling [8] | AE incidence: Myalgia [8] | AE incidence: Nasal congestion [8] | AE incidence: Nausea [8] | AE incidence: Pain in jaw [8] | AE incidence: Tension headache [8] | AE incidence: Vascular access complication [8] | AE incidence: Vomiting [8] | AE incidence: Diarrhoea [10] | AE incidence: Dysgeusia [10] | AE incidence: Epistaxis [10] | AE incidence: Flatulence [10] | AE incidence: Flushing [10] | AE incidence: Incorrect drug administration rate [10] | AE incidence: Infusion site swelling [10] | AE incidence: Lymphadenopathy [10] | AE incidence: Myalgia [10] | AE incidence: Nasal congestion [10] | AE incidence: Nausea [10] | AE incidence: Pain in jaw [10] | AE incidence: Tachycardia [10] | AE incidence: Tension headache [10] | AE incidence: Vascular access complication [10] | AE incidence: Vomiting [10] | Prostacyclin-associated AE incidence: Diarrhoea [11] | Prostacyclin-associated AE incidence: Flushing [11] | Prostacyclin-associated AE incidence: Myalgia [11] | Prostacyclin-associated AE incidence: Nausea [11] | Prostacyclin-associated AE incidence: Pain in jaw [11] | Prostacyclin-associated AE incidence: Tension headache [11]
8 subjects: subjects with mild intensity AEs [2]
1 subject: subjects with severe intensity AEs [2]
1 (8.3) n (%): AE incidence: Sleep disorder [5] | Subjects with at least one AE [5]
